From US7507716B2, “Method for treating pain with prolactin antagonists” (Board of Regents, The University of Texas System, priority 2005, dated 2009)

How the values were obtained:
PRL mRNA = test: Real-time RT-PCR of PRL mRNA in trigeminal ganglia; format: in vivo, rat
Excerpt: The S.A.M. and GeneSpring 5.1 analyses identified 18 genes whose expression increased and 3 genes whose expression decreased. […] The expression profile of genes selected using the microarray screen was confirmed by real-time RT-PCR. Validated primers were used for each gene and expression was normalized to the housekeeping gene 18S. Data are presented as mean±SEM (n=5/group, **=p<0.01 and ***=p<0.001 versus respective vehicle control; two-tailed unpaired T test). […] For this reason, PRL was selected for further study as a candidate therapeutic target for female-biased pain disorders.
Reactions were performed using primers specific for PRL gene and the internal control (18S). Data were normalized to the relative amount of OVX (vehicle) PRL mRNA/18S. Data are presented as mean±SEM (n=5/group, **=p<0.01 and ***=p<0.001 vs. PRL mRNA of the OVX/Vehicle group; one-way ANOVA with Bonferroni's post hoc test). […] Moreover, the relative PRL mRNA expression in the TG of intact female rats during proestrous was 78-fold greater (p<0.001). The TG samples collected from these groups were also subjected to Western blot analysis to determine the relative expression of PRL protein. […] The results obtained from these experiments were quantified as described in the METHODS section. […] The specificity of anti-PRL antibodies was evaluated by a use of the blocking peptide corresponding to the epitope of PRL. Pre-absorption of anti-PRL antibodies with the blocking peptide nearly eliminated the PRL-specific band (FIGS. 2B, 2C).
RNA isolation: Harvested TG tissue from OVX (treated with vehicle or estradiol) or intact proestrous female rats were immediately frozen in liquid nitrogen and ground in a pre-chilled mortar. The ground tissue was used to isolate total RNA by the guanidinium thiocyanate method as described previously (Chomczynski and Sacchi, 1987). […] Additional RNA sample aliquots were used as template for the quantitative real time RT-PCR experiments.
Quantitative Real Time RT-PCR (qRT-PCR): Total RNA (100 ng) was used as template in a one-step RT-PCR protocol. […]

TG neurons = test: Capsaicin-evoked iCGRP release from cultured TG neurons (RIA); format: cell-based, rat; settings: PRL 40 nM, capsaicin 50 nM
Protocol: Release of iCGRP from cultured neurons was measured by radioimmunoassay. Data are presented as mean % of vehicle±SEM (n=4/group, *=P<0.05 and **=P<0.01 vs. iCGRP levels of each control group; two-tailed unpaired T test).
Rat trigeminal ganglia (TG) primary cultures: The TG from ovariectomized or intact female rats were quickly removed after decapitation and neuronal cultures were prepared as previously described (Fehrenbacher et al., 2005; Patwardhan et al., 2005). The trypsin treatment was omitted in TG cultures prepared for electrophysiological recording and Ca^2+ imaging. Cells were plated on 24 well Poly-D-Lysine coated plates (for iCGRP experiments), 6 well Poly-D-Lysine plates (for PRL release experiments), Poly-D-Lysine/laminin-coated coverslips (for single cell studies) or 10 cm plates (for phosphorylation experiments), respectively. The TG cultures were maintained at 37° C. and 5% CO2. […] The media were replaced at the end of 24 h and then 48 h later.
CGRP release assay: All culture experiments were performed on day 5 at 37° C. using modified Hanks (Gibco) buffer (10.9 mM HEPES, 4.2 mM sodium bicarbonate, 10 mM dextrose and 0.1% bovine serum albumin were added to 1× Hanks). After two initial washes, a 15 min baseline sample was collected. […]

## C[C@]12CC[C@@H]3c4ccc(O)cc4CC[C@H]3[C@@H]1CC[C@@H]2O [estradiol, 17-β-estradiol]
PRL mRNA; OVX rats undergoing estradiol replacement, summary statement
  PRL mRNA estradiol responsiveness in TG neurons: > 40 fold
PRL mRNA; OVX rats with estradiol replacement 80 μg/kg/day×10 days, normalized to 18S, FIG. 2A
  increase in PRL mRNA expression in TG vs OVX control rats: approximately 50 fold
PRL mRNA; TG of OVX rats, 80 μg/kg/day for 10 days vs vehicle, normalized to 18S, FIG. 1
  increase in PRL mRNA expression in response to estradiol: 48 fold

B1: PRL: Ovine PRL [oPRL-21, BIO] provided by NHPP; prolactin polypeptide hormone (protein, UniProt P01240 31-229, looked up)
Prolactin: TPVCPNGPGNCQVSLRDLFDRAVMVSHYIHNLSSEMFNEFDKRYAQGKGFITMALNSCHTSSLPTPEDKEQAQQTHHEVLMSLILGLLRSWNDPLYHLVTEVRGMKGVPDAILSRAIEIEEENKRLLEGMEMIFGQVIPGAKETEPYPVWSGLPSLQTKDEDARHSAFYNLLHCLRRDSSKIDTYLKLLNCRIIYNNNC
TG neurons; OVX TG neurons cultured 5 days with 50 nM estradiol
  PRL sensitization of capsaicin-evoked iCGRP release: significantly restored
TG neurons; OVX TG neurons cultured in the absence of E2
  PRL sensitization of capsaicin-evoked iCGRP release: no effect was observed
